According to paper PMC8225628, “Bispecific repurposed medicines targeting the viral and immunological arms of COVID-19” (Scientific Reports, 2021):
“And” between values parts separate entries of the source, which are not always exact repeats. Identical values can stand only once. Like-named read-outs stand apart in the source and are kept apart here. *1 amine or outer side, *2 acyl side, *3 side chain or, on linkers, in order; H or OH if unused. Where a SMILES comes first, the peptide text is derived from it. Bridges are numbered along the chain shown (N, C = ends). [ ]: non-standard residue; d: D form. The star is where a group is joined. hTyr(3S-OH,4S-OH,3'-OSO3H) = N[C@H](C(=O)O)[C@H](O)[C@@H](O)c1ccc(O)c(OS(=O)(=O)O)c1; Orn(4R-OH,5R-OH) = O=C([C@H](C[C@@H](O)[C@@H](O)N[*:3])N[*:1])[*:2]; Pro(3S-OH,4S-Me) = C[C@H]1CN[C@H](C(=O)O)[C@H]1O; X1 = CCCCCOc1ccc(-c2cc(-c3ccc(C(=O)*)cc3)no2)cc1; Gln(3R-OH) = NC(=O)C[C@@H](O)[C@H](N)C(=O)O; Hyp = O=C(O)[C@@H]1C[C@@H](O)CN1

Columns and labels:
[1] = target: SARS-CoV-2 PL^pro (Severe acute respiratory syndrome coronavirus 2, UniProt P0DTD1); experiment: biochemical; conditions: for inhibition at 10 µM: read-out: PL^pro % inhibition at 10 µM
[2] = target: SARS-CoV-2 M^pro (Severe acute respiratory syndrome coronavirus 2, UniProt P0DTD1); experiment: biochemical; conditions: for inhibition at 10 µM: read-out: M^pro % inhibition at 10 µM
[3] = system: SARS-CoV-2; experiment: Antiviral assay, inhibition of SARS-CoV-2 cytopathic effect in HUH7_mCherry cells; conditions: HUH7 cells
[4] = system: HUH7 cells; conditions: 4 days
[5] = target: M^pro (Severe acute respiratory syndrome coronavirus 2, UniProt P0DTD1); experiment: M^pro SPR assay; type: binding
[6] = parameters: method as in PMID 32726803; conditions: cited from earlier work
[7] = parameters: method as in PMID 32726803; conditions: read-out: FFU IC50; cited from earlier work
[8] = system: PL^pro; parameters: method as in PMID 32726803; conditions: read-out: Biochemical IC50; cited from earlier work
[9] = parameters: method as in PMID 32726803; conditions: cited from earlier work; remark: listed apart in the source
[10] = ReFRAME hits, >5e-6 = not potent enough to determine an IC50, read-out: PL^pro IC50
[11] = ReFRAME hits, >5e-6 = not potent enough to determine an IC50, read-out: M^pro IC50
[12] = SARS-CoV-2 PL^pro, range in brackets, read-out: IC50 (µM) (range)

Molecule: CO[C@H]1O[C@H](COS(=O)(=O)[O-])[C@@H](O[C@@H]2O[C@@H](C(=O)[O-])[C@@H](O[C@H]3O[C@H](COS(=O)(=O)[O-])[C@@H](O[C@@H]4O[C@H](C(=O)[O-])[C@@H](O[C@H]5O[C@H](COS(=O)(=O)[O-])[C@@H](O)[C@H](O)[C@H]5NS(=O)(=O)[O-])[C@H](O)[C@H]4O)[C@H](OS(=O)(=O)[O-])[C@H]3NS(=O)(=O)[O-])[C@H](O)[C@H]2OS(=O)(=O)[O-])[C@H](O)[C@H]1NS(=O)(=O)[O-].[Na+].[Na+].[Na+].[Na+].[Na+].[Na+].[Na+].[Na+].[Na+].[Na+] [fondaparinux (sodium), reference compound]
- PL^pro % inhibition at 10 µM ([1]; ReFRAME hits, 10 µM): 23%
- IC50 [1, 10]: > 5 µM
- M^pro % inhibition at 10 µM ([2]; ReFRAME hits): 80%
- IC50 [2, 11]: 2 µM

Molecule: CC(=O)Oc1ccccc1C(=O)OC1OC(=O)c2ccccc21 (stereo not drawn) [talosalate]
- PL^pro % inhibition at 10 µM ([1]; ReFRAME hits, 10 µM): 13%
- IC50 [1, 10]: > 5 µM
- M^pro % inhibition at 10 µM ([2]; ReFRAME hits): 80%
- IC50 [2, 11]: 4 µM

Molecule: [(-)-epicatechin]
- PL^pro % inhibition at 10 µM ([1]; ReFRAME hits, 10 µM): 16%
- IC50 [1, 10]: > 5 µM

Molecule: CCOc1cc2ncc(C#N)c(Nc3ccc(F)c(Cl)c3)c2cc1NC(=O)/C=C/CN(C)C [Compound 10, Pelitinib, reference compound]
- IC50 [1, 12]: > 100 µM
- Inhibition of M^pro (in words) [2]: not determined to display significant biochemical inhibition

Molecule: CN(C)C/C=C/C(=O)Nc1cc2c(Nc3ccc(F)c(Cl)c3)ncnc2cc1O[C@H]1CCOC1 [Compound 11, Afatinib, reference compound]
- IC50 [1, 12]: 12 µM

Molecule: COc1ccc(-c2ccc(OCc3cc(C(=O)[N-]S(=O)(=O)c4ccccc4C)oc3C)cc2)nc1.[Na+] [BGC-20-1531]
- PL^pro % inhibition at 10 µM ([1]; ReFRAME hits, 10 µM): 24%
- IC50 [1, 10]: > 5 µM
- M^pro % inhibition at 10 µM ([2]; ReFRAME hits): 58%
- IC50 [2, 11]: > 5 µM

Molecule: CN1CCCN=C1/C=C/c1cccc(O)c1 [oxantel (pamoate), reference compound]
- IC50 [1, 10]: > 5 µM

Molecule: CC(=O)[O][Hg][c]1cc(C(C)(C)CC(C)(C)C)ccc1O [acetomeroctol]
- PL^pro % inhibition at 10 µM [1]: 7%
- IC50 ([1]; read-out: PL^pro IC50): > 5 µM

Molecule: Nc1nc(N)nc(Nc2ccc([As]3SC(C(=O)O)C(C(=O)O)S3)cc2)n1 (stereo not drawn) [MELARSONYL]
- PL^pro % inhibition at 10 µM [1]: 11%
- IC50 ([1]; read-out: PL^pro IC50): > 5 µM

Molecule: CCCCCOc1ccc(-c2cc(-c3ccc(C(=O)N[C@H]4C[C@@H](O)[C@@H](O)NC(=O)[C@@H]5[C@@H](O)[C@@H](C)CN5C(=O)[C@H]([C@H](O)CC(N)=O)NC(=O)[C@H]([C@H](O)[C@@H](O)c5ccc(O)c(OS(=O)(=O)[O-])c5)NC(=O)[C@@H]5C[C@@H](O)CN5C(=O)[C@H]([C@@H](C)O)NC4=O)cc3)no2)cc1.[Na+] [micafungin Sodium, reference compound] (X1-[Orn(4R-OH,5R-OH)]T[Hyp][hTyr(3S-OH,4S-OH,3'-OSO3H)][Gln(3R-OH)][Pro(3S-OH,4S-Me)]; lactam 1-C)
- PL^pro % inhibition at 10 µM ([1]; ReFRAME hits, 10 µM): 24%
- IC50 [1, 10]: > 5 µM

Molecule: (-)-epicatechin gallate
- PL^pro % inhibition at 10 µM ([1]; ReFRAME hits, 10 µM): 11%
- IC50 [1, 10]: > 5 µM

Molecule: COc1ccc(/C=C/CCCCOc2ccc(C(=O)c3cccc(C(=O)O)c3)cc2CCC(=O)O)cc1 [LY 223982]
- PL^pro % inhibition at 10 µM ([1]; ReFRAME hits, 10 µM): 22%
- IC50 [1, 10]: > 5 µM
- M^pro % inhibition at 10 µM ([2]; ReFRAME hits): 43%
- IC50 [2, 11]: > 5 µM

Molecule: CC(C)(C)NC(=O)N[C@H](C(=O)N1C[C@H]2[C@@H]([C@H]1C(=O)NC(CC1CCC1)C(=O)C(N)=O)C2(C)C)C(C)(C)C (stereo partly drawn) [Boceprevir, reference compound]
- inhibition at 10 µM ([1]; ReFRAME hits, 10 µM): -2%
- inhibition at 10 µM ([2]; ReFRAME hits): 62%

Molecule: O=C(NCc1ccccn1)C(=O)C(Cc1ccccc1)NC(=O)C1CCC(=O)N1Cc1ccccc1 (stereo not drawn) [Compound 1]
- Antiviral effect ([3]; at 100 µM): 75%
- Concentration up to which non-cytotoxic ([4]; HUH7 cells): up to 100 µM

Molecule: CCC[C@@H](NC(=O)N1C(=O)C(CC)(CC)[C@@H]1Oc1ccc(CC(=O)O)cc1)c1ccc(C)cc1 [L 680833]
- PL^pro % inhibition at 10 µM ([1]; ReFRAME hits, 10 µM): 11%
- IC50 [1, 10]: > 5 µM
- M^pro % inhibition at 10 µM ([2]; ReFRAME hits): 36%
- IC50 [2, 11]: > 5 µM

Molecule: CN(C/C=C/C#CC(C)(C)C)Cc1cccc2c(F)cc(F)cc12 [SDZ-880-540]
- PL^pro % inhibition at 10 µM ([1]; ReFRAME hits, 10 µM): 15%
- IC50 [1, 10]: > 5 µM
- M^pro % inhibition at 10 µM ([2]; ReFRAME hits): -1%
- IC50 [2, 11]: > 5 µM

Molecule: O=C(NC1CC1)C(=O)C(Cc1ccccc1)NC(=O)C1CCC(=O)N1Cc1ccccc1 (stereo not drawn) [Compound 2, ABT-957, reference compound]
- inhibition at 10 µM ([1]; ReFRAME hits, 10 µM): 17%
- IC50 ([1]; read-out: PL^pro IC50): > 5 µM
- IC50 [2, 11]: > 5 µM
- IC50 ([2]; read-out: IC50 against M^pro): > 100 µM
- inhibition at 10 µM ([2]; ReFRAME hits): 73%

Molecule: O=C(N/N=C/c1ccc([N+](=O)[O-])o1)c1cc([N+](=O)[O-])cc([N+](=O)[O-])c1O [nifursol]
- inhibition at 10 µM ([1]; ReFRAME hits, 10 µM): 23%
- IC50 ([1]; read-out: PL^pro IC50): > 5 µM
- inhibition at 10 µM ([2]; ReFRAME hits): 43%

Molecule: CCOC(=O)C[C@H](NC(=O)[C@H](C)NC(=O)[C@@H](NC(=O)OCc1ccccc1)C(C)C)C(=O)COC(=O)c1c(Cl)cccc1Cl [Compound 4, Ethyl (5S,8S,11S)-11-(2-((2,6-dichlorobenzoyl)oxy)acetyl)-5-isopropyl-8-methyl-3,6,9-trioxo-1-phenyl-2-oxa-4,7,10-triazatridecan-13-oate, reference compound]
- Binding to M^pro in SPR (in words) [5]: confirmed to bind
- Binding to M^pro in SPR (in words) ([5]; in the presence of slow off-rate inhibitor N3): no binding observed
- inhibition at 10 µM ([1]; ReFRAME hits, 10 µM): 19%
- IC50 ([1]; read-out: PL^pro IC50): > 5 µM
- Antiviral effect ([3]; at 10 µM, dose refreshed daily): 50%
- Concentration up to which non-cytotoxic ([4]; human): ≤ 10 µM
- IC50 ([2]; 30 nM is the biochemical limit of the assay, read-out: IC50 against M^pro): 0.03 µM
- inhibition at 10 µM ([2]; ReFRAME hits): 95%

Molecule: Cc1cccnc1NS(=O)(=O)c1ccc(C#Cc2ccc(O)c(C(=O)O)c2)cc1 [susalimod]
- inhibition at 10 µM ([1]; ReFRAME hits, 10 µM): 22%
- IC50 ([1]; read-out: PL^pro IC50): > 5 µM
- inhibition at 10 µM ([2]; ReFRAME hits): 31%
- IC50 ([2]; read-out: M^pro IC50): > 5 µM

Molecule: O=c1cc(-c2ccc(O)c(-c3c(O)cc(O)c4c(=O)cc(-c5ccc(O)cc5)oc34)c2)oc2cc(O)cc(O)c12 [amentoflavone]
- inhibition at 10 µM ([1]; ReFRAME hits, 10 µM): 4%
- IC50 ([1]; read-out: PL^pro IC50): > 5 µM
- inhibition at 10 µM ([2]; ReFRAME hits): 34%

Molecule: Cc1cc(O)c2c(=O)c3c(O)cc(O)c4c5c(O)cc(O)c6c(=O)c7c(O)cc(C)c8c1c2c(c34)c(c78)c65 [hypericin]
- inhibition at 10 µM ([1]; ReFRAME hits, 10 µM): 12%
- IC50 ([1]; read-out: PL^pro IC50): > 5 µM

Molecule: COc1cc2ncnc(Nc3ccc(F)c(Cl)c3)c2cc1NC(=O)/C=C/CN1CCCCC1 [Compound 12, Dacomitinib, reference compound]
- IC50 [1, 12]: 4 µM

Molecule: teicoplanin [reference compound]
- PL^pro % inhibition at 10 µM ([1]; ReFRAME hits, 10 µM): 88% and 81%

Molecule: CN1CCCN=C1/C=C/c1cccs1 [Pyrantel pamoate, reference compound]
- IC50 [1]: > 5 µM

Molecule: CCOC1OC(=O)CC1NC(=O)C1CCCN1C(=O)C(NC(=O)c1ccc(N)c(Cl)c1)C(C)(C)C (stereo not drawn) [Compound 7, belnecasan, reference compound]
- Inhibition of M^pro (in words) [2]: did not substantially inhibit

Molecule: CN1CCCN=C1/C=C/c1cccc(O)c1.O=C(O)c1cc2ccccc2c(Cc2c(O)c(C(=O)O)cc3ccccc23)c1O [oxantel (pamoate), reference compound]
- PL^pro % inhibition at 10 µM ([1]; ReFRAME hits, 10 µM): 11%

Molecule: [Cl][Hg][Cl] [mercuric chloride]
- PL^pro % inhibition at 10 µM ([1]; ReFRAME hits, 10 µM): 16%
- IC50 [1, 10]: > 5 µM

Molecule: Cc1ccc(N)cc1C(=O)N[C@H](C)c1cccc2ccccc12 [GRL-0617]
- Viral RNA detection potency [6]: > 50 µM
- IC50 [7]: > 100 µM
- Cytopathic-effect potency [9]: 30 µM

Molecule: O=C(O)c1cccc(C[C@@H]2COc3ccc(OCc4nc5cc(F)ccc5s4)cc3[C@@H]2O)c1 [(+)-CP-85958]
- PL^pro % inhibition at 10 µM ([1]; ReFRAME hits, 10 µM): 17%
- IC50 [1, 10]: > 5 µM
- M^pro % inhibition at 10 µM ([2]; ReFRAME hits): 70%
- IC50 [2, 11]: 2 µM

Molecule: SENNOSIDES [reference compound]
- PL^pro % inhibition at 10 µM ([1]; ReFRAME hits, 10 µM): 72%
- IC50 [1, 10]: > 5 µM
- M^pro % inhibition at 10 µM ([2]; ReFRAME hits): 92%
- IC50 [2, 11]: 0.7 µM

Molecule: O=C1OC2(c3ccccc31)c1cc(I)c(O)c(I)c1Oc1c2cc(I)c(O)c1I [erythrosine]
- IC50 [1]: > 5 µM
- inhibition at 10 µM ([1]; ReFRAME hits, 10 µM): 20%
- inhibition at 10 µM ([2]; ReFRAME hits): 58%

Molecule: Cl.Cl.Cl.Cl.N=C(N)NCCCCC(=O)Nc1cc(C(F)(F)F)cc(NC(=O)c2cc(C(=O)Nc3cc(C(F)(F)F)cc(NC(=O)CCCCNC(=N)N)c3O[C@@H]3CCNC3)ncn2)c1O[C@@H]1CCNC1 [PMX-30063]
- PL^pro % inhibition at 10 µM ([1]; ReFRAME hits, 10 µM): 30%
- IC50 [1, 10]: 2 µM
- M^pro % inhibition at 10 µM ([2]; ReFRAME hits): 11%
- IC50 [2, 11]: > 5 µM
